The test system of one experiment is HCV replicon. The experiment can be described thus: HCV replicon FRET / luciferase assay. The format is cell-based. The following applies: Hepatitis C virus; HCV replicon cells; 50% reduction in FRET or luciferase activity; read-out: EC50. The protocol: FRET Assay Preparation. The HCV FRET screening assay was performed in 96-well cell culture plates. The FRET peptide (Anaspec, Inc.) (Taliani et al., Anal. Biochem. 1996, 240, 60-67) contains a fluorescence donor, EDANS, near one end of the peptide and an acceptor, DABCYL, near the other end. The fluorescence of the peptide is quenched by […] resonance energy transfer (RET) between the donor and the acceptor, but as the NS3 protease cleaves the peptide the products are released from RET quenching and the fluorescence of the donor becomes apparent. The assay reagent was made as follows: 5× cell Luciferase cell culture lysis reagent from Promega (#E153A) diluted to 1× with dH2O, NaCl added to 150 mM final, the FRET peptide diluted to 20 μM final from a 2 mM stock.
To prepare plates, HCV replicon cells, with or without a Renilla luciferase reporter gene, were trypsinized and plated in a 96-well plate with titrated test compounds added in columns 3 through 12; columns 1 and 2 contained a control compound (HCV control inhibitor), and the bottom row contained cells with DMSO only. The plates were then placed in a CO2 incubator at 37° C.
Assays. Subsequent to addition of the test compounds described above (FRET Assay Preparation), at various times the plate was removed and Alamar blue solution (Trek Diagnostics, #00-100) was added to measure cellular toxicity. After reading in a Cytoflour 4000 instrument (PE Biosystems), plates were rinsed with PBS and then used for FRET assay by the addition of 30 ul of the FRET peptide assay reagent described above (FRET Assay Preparation) per well. The plate was then placed into the Cytoflour 4000 instrument which had been set to 340 excite/490 emission, automatic mode for up to 20 cycles and the plate read in a kinetic mode. Typically, the signal to noise using an endpoint analysis after the reads was at least three-fold. Alternatively, after Alamar blue reading, plates were rinsed with PBS, then used for luciferase assay using the Promega Dual-Glo Luciferase Assay System or the Promega EnduRen Live Cell Substrate assay.
Compound analysis was performed by quantification of the relative HCV replicon inhibition and the relative cytotoxicity values. To calculate cytoxicity values, the average Alamar Blue fluorescence signals from the control wells were set as 100% non-toxic. The individual signals in each of the compound test wells were then divided by the average control signal and multiplied by 100% to determine […]. To calculate the HCV replicon inhibition values, an average background value was obtained from the two wells containing the highest amount of HCV control inhibitor at the end of the assay period. These numbers were similar to those obtained from naive Huh-7 cells. The background numbers were then subtracted from the average signal obtained from the control wells and this number was used as 100% activity. The individual signals in each of the compound test wells were then divided by the averaged control values after background subtraction and multiplied by 100% to determine percent activity. EC50 values were calculated as the concentration which caused a 50% reduction in FRET or luciferase activity. The two numbers generated for the compound plate, percent cytoxicity and percent activity, were used to determine compounds of interest for further analysis.
(A replicon is a self-replicating genome or part of one, used to study replication in cells.)

The target of the next experiment is T1, HCV NS5B (Hepatitis C virus genotype 1b, UniProt Q9WMX2).
T1 construct: The protein was expressed with an 18 amino acid C-terminal truncation to enhance the solubility; made in house; host or cells: E. coli BL21(DE3)
T1 sequence (Q9WMX2 2420-2992): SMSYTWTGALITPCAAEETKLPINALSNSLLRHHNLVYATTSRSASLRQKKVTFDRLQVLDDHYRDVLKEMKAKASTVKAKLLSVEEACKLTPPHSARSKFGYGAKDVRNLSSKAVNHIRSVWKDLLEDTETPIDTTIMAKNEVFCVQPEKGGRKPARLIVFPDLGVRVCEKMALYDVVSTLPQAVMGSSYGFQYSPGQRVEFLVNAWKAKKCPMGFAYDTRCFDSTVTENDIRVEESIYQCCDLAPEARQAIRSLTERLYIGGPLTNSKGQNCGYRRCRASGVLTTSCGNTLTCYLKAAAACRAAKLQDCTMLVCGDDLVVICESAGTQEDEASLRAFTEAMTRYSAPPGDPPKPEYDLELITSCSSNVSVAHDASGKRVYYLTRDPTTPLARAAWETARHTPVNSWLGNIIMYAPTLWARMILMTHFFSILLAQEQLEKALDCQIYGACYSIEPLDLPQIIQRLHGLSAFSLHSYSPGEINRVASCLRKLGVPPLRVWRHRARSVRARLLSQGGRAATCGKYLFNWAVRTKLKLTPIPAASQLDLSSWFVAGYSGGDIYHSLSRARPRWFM
The experiment in a line: HCV NS5B RdRp enzyme assay (standard or modified). The format is biochemical. The note with it: HCV NS5B RdRp genotype 1b; standard or modified enzyme assay not specified; read-out: IC50. The protocol: HCV NS5B RdRp cloning, expression, and purification. The cDNA encoding the NS5B protein of HCV, genotype 1b, was cloned into the pET21a expression vector. The protein was expressed with an 18 amino acid C-terminal truncation to enhance the solubility. The E. coli competent cell line BL21(DE3) was used for expression of the protein. Cultures were grown at 37° C. for ˜4 hours until the cultures reached an optical density of 2.0 at 600 nm. The cultures were cooled to 20° C. and induced with 1 mM IPTG. Fresh ampicillin was added to a final concentration of 50 μg/ml and the cells were grown overnight at 20° C.
Cell pellets (3 L) were lysed for purification to yield 15-24 mgs of purified NS5B. The lysis buffer consisted of 20 mM Tris-HCl, pH 7.4, 500 mM NaCl, 0.5% triton X-100, 1 mM DTT, 1mM EDTA, 20% glycerol, 0.5 mg/ml lysozyme, 10 mM MgCl2, 15 ug/ml deoxyribonuclease I, and Complete TM protease inhibitor tablets (Roche). After addition of the lysis buffer, frozen cell pellets were resuspended using a tissue homogenizer. To reduce the viscosity of the sample, aliquots of the lysate were sonicated on ice using a microtip attached to a Branson sonicator. The sonicated lysate was centrifuged at 100,000×g for 1 hr at 4° C. and filtered through a 0.2 μm filter unit (Corning).
The protein was purified using two sequential chromatography steps: Heparin sepharose CL-6B and polyU sepharose 4B (Pharmacia). The chromatography buffers were identical to the lysis buffer but contained no lysozyme, deoxyribonuclease I, MgCl2 or protease inhibitor and the NaCl concentration of the buffer was adjusted according to the requirements for charging the protein onto the column. Each column was eluted with a NaCl gradient which varied in length from 5-50 column volumes depending on the column type. After the final chromatography step, the resulting purity of the enzyme is >90% based on SDS-PAGE analysis. The enzyme was aliquoted and stored at −80° C.
Standard HCV NS5B RdRp enzyme assay. HCV RdRp genotype 1b assays were run in a final volume of 60 μl in 96 well plates (Corning 3600). The assay buffer is composed of 20 mM Hepes, pH 7.5, 2.5 mM KCl, 2.5 mM MgCl2, 1 mM DTT, 1.6 U RNAse inhibitor (Promega N2515), 0.01 mg/ml BSA (Sigma B6917), and 2% glycerol. All compounds were serially diluted (3-fold) in DMSO and diluted further in water such that the final concentration of DMSO in the assay was 2%. HCV RdRp genotype 1b enzyme was used at a final concentration of 28 nM. A polyA template was used at 6 nM, and a biotinylated oligo-dT12 primer was used at 180 nM final concentration. Template was obtained commercially (Amersham 27-4110). Biotinylated primer was prepared by Sigma Genosys. 3H-UTP was used at 0.6 μCi (0.29 μM total UTP). Reactions were initiated by the addition of enzyme, incubated at 30° C. for 60 min, and stopped by adding 25 μl of 50 mM EDTA containing SPA beads (4 μg/pl, Amersham RPNQ 0007). Plates were read on a Packard Top Count NXT after >1 hr incubation at room temperature.
Modified HCV NS5B RdRp enzyme assay. A modified enzyme assay was performed essentially as described for the standard enzyme assay except for the following: The biotinylated oligo dT12 primer was precaptured on streptavidin-coated SPA beads by mixing primer and beads in assay buffer and incubating at room temperature for one hour. Unbound primer was removed after centrifugation. The primer-bound beads were resuspended in 20 mM Hepes buffer, pH 7.5 and used in the assay at final concentrations of 20 nM primer and 0.67 μg/μl beads. Order of addition in the assay: enzyme (1.75 nM) was added to diluted compound followed by the addition of a mixture of template (0.36 nM), 3H-UTP (0.6 μCi, 0.29 μM), and primer-bound beads, to initiate the reaction; concentrations given are final. Reactions were allowed to proceed for 4 hours at 30° C.
IC50 values for compounds were determined using seven different [I]. […]

Take `COc1ccc2c(c1)C1CC1(C(=O)O[C@@H]1C[C@@H]3CC[C@@]1(C)C3(C)C)Cn1c-2c(C2CCCCC2)c2ccc(C(=O)NS(=O)(=O)N(C)C)cc21` (some centres unmarked): the EC50 with HCV replicon was over 1 µM. In addition, the IC50 on HCV NS5B is 0.003 to 1 µM.

For `COc1ccc2c(c1)C1CC1(C(=O)N(C)C1CCN(C)C1)Cn1c-2c(C2CCCCC2)c2ccc(C(=O)NS(=O)(=O)N(C)C)cc21` (centres unmarked), in the experiment on HCV replicon, the EC50 was 0.003 to 1 µM. The IC50 on HCV NS5B lay in the range of 0.003 to 1 µM.

Consider `COc1ccc2c(c1)C1CC1(C(=O)N(C)C1CCN(C)CC1)Cn1c-2c(C2CCCCC2)c2ccc(C(=O)NS(=O)(=O)N(C)C)cc21` (centres unmarked), for which the EC50 in the experiment on HCV replicon fell in the range of 0.003 to 1 µM. The IC50 on HCV NS5B lay in the range of 0.003 to 1 µM.

`COc1ccc2c(c1)C1CC1(C(=O)N(C)C(CN(C)C)c1ccccc1)Cn1c-2c(C2CCCCC2)c2ccc(C(=O)NS(=O)(=O)N(C)C)cc21` (centres unmarked): the EC50 in the experiment on HCV replicon was in the range of 0.003 to 1 µM. In addition, the IC50 at HCV NS5B is 0.003 to 1 µM.

For `COc1ccc2c(c1)C1CC1(C(=O)N1CCCC1CN1CCCC1)Cn1c-2c(C2CCCCC2)c2ccc(C(=O)NS(=O)(=O)N(C)C)cc21` (centres unmarked), the EC50 in the experiment on HCV replicon fell in the range of 0.003 to 1 µM. On HCV NS5B, the IC50 is 0.003 to 1 µM.

For the molecule `COc1ccc2c(c1)C1CC1(C(=O)N(C)CCN1CCCC1)Cn1c-2c(C2CCCCC2)c2ccc(C(=O)NS(=O)(=O)N(C)C)cc21` (centres unmarked), the EC50 in the experiment with HCV replicon lay within 0.003 to 1 µM. The IC50 on HCV NS5B was in the range of 0.003 to 1 µM.

Take `COc1ccc2c(c1)C1CC1(C(=O)N(C)CC1CCCN1C)Cn1c-2c(C2CCCCC2)c2ccc(C(=O)NS(=O)(=O)N(C)C)cc21` (centres unmarked): the EC50 in the experiment with HCV replicon was 0.003 to 1 µM. The IC50 on HCV NS5B lay in the range of 0.003 to 1 µM.

`COc1ccc2c(c1)C1CC1(C(=O)N(C)CC1CCCCN1C)Cn1c-2c(C2CCCCC2)c2ccc(C(=O)NS(=O)(=O)N(C)C)cc21` (centres unmarked): the EC50 in the experiment with HCV replicon was in the range of 0.003 to 1 µM. The IC50 on HCV NS5B lay within 0.003 to 1 µM.

Regarding `COc1ccc2c(c1)C1CC1(C(=O)N(C)[C@@H]1CCCC[C@H]1N(C)C)Cn1c-2c(C2CCCCC2)c2ccc(C(=O)NS(=O)(=O)N(C)C)cc21` (some centres unmarked), in the experiment on HCV replicon, the half-maximal effective concentration (EC50) fell in the range of 0.003 to 1 µM. Also, at HCV NS5B, the IC50 was 0.003 to 1 µM.

As for `COc1ccc2c(c1)C1CC1(C(=O)N(C1CC1)[C@@H]1CCCC[C@H]1N(C)C)Cn1c-2c(C2CCCCC2)c2ccc(C(=O)NS(=O)(=O)N(C)C)cc21` (some centres unmarked), the EC50 in the experiment on HCV replicon fell in the range of 0.003 to 1 µM. The IC50 on HCV NS5B was 0.003 to 1 µM.

Take `COc1ccc2c(c1)C1CC1(C(=O)N[C@@H]1CCC[C@H]1N(C)C)Cn1c-2c(C2CCCCC2)c2ccc(C(=O)NS(=O)(=O)N(C)C)cc21` (some centres unmarked): the EC50 in the experiment on HCV replicon is 0.003 to 1 µM. In addition, on HCV NS5B, the IC50 lay in the range of 0.003 to 1 µM.

Regarding `COc1ccc2c(c1)C1CC1(C(=O)N1CCCN(C(=O)OC(C)(C)C)CC1)Cn1c-2c(C2CCCCC2)c2ccc(C(=O)NS(=O)(=O)C3CC3)cc21` (centres unmarked), the IC50 at HCV NS5B is 0.003 to 1 µM.

One may read the EC50 as the concentration at which the effect is half-maximal. In general, IC50 refers to the concentration needed to halve the response being measured.
